In one assay the target is T1, NFP L147D/L154D mutant (Medicago truncatula, UniProt Q0GXS4, L147D/L154D).
T1 construct: The Medicago truncatula NFP ectodomain (residues 28-246) was codon-optimized; AcMNPV gp67 signal peptide (replaces native residues 1-27) (N, cleaved yes); made in house; host or cells: Sf9 insect cells (Spodoptera frugiperda), baculovirus, secreted into the medium
The assay is described as follows: BLI binding of NFP L147D/L154D mutant ectodomain to S. meliloti LCO-IV. An excerpt: Creation of NFP point mutations: The NFP leucine residues L147 and L154 were replaced with aspartate residues. Aspartate is similar in size to leucine, but negatively charged where leucine is hydrophobic. Point mutants of NFP were engineered using site-directed mutagenesis. In particular, a double-mutated NFP was engineered where the leucine residues L147 and L154 were replaced with aspartate residues to create the mutant NFP L147D L154D. Point mutated versions of NFP were expressed and purified as described in Example 1.
NFP mutant binding assays: The binding assay using NFP wild type (WT) protein was replicated seven times, while the binding assay using the NFP mutant NFP L147D L154D was replicated four times.
Biolayer interferometry (BLI): Binding of NFP WT and NFP L147D/L154D mutant to S. meliloti LCO-IV was measured on an Octet RED 96 system (Pall ForteBio). S. meliloti LCO consists of a tetrameric/pentameric N-acetylglucosamine backbone that is O-sulfated on the reducing terminal residue, O-acetylated on the non-reducing terminal residue, and mono-N-acylated by unsaturated C16 acyl groups. Biotinylated ligand conjugates were immobilized on streptavidin biosensors (kinetic quality, Pall ForteBio) at a concentration of 125-250 nM for 5 minutes. The binding assays were replicated 7 times for the NFP WT, and 4 times for the NFP L147D/L154D mutant. Data analysis was performed in GraphPad Prism 6 software (GraphPad Software, Inc.). Equilibrium dissociation constants derived from the steady-state were determined by applying a non-linear regression (one site, specific binding) to the response at equilibrium plotted against the protein concentration. Kinetic parameters were determined by non-linear regression (association followed by dissociation) on the subtracted data. Binding of A. thaliana CERK1 (AtCERK1) to chitopentaose (CO5) and chitooctaose (CO8) was measured in the same way.
For orientation: In BLI a coated tip is dipped into the sample, and binding shifts an interference pattern.

Assay [1] deals with Medicago nfp mutants. The assay is described as follows: Complementation (nodulation) of Medicago nfp mutants, inoculation with S. meliloti strain 2011. The class given is in vivo, Medicago truncatula. As to conditions: 6-7 weeks after inoculation with S. meliloti strain 2011, hairy root transformation. An excerpt: (§1) Complementation assay: Construct assembly, plant growth conditions, hairy root transformations, nodulation and ROS assays were generally conducted as described in Bozsoki et al. (2017) (Bozsoki Z, Cheng J, Feng F, Gysel K, Vinther M, Andersen K R, Oldroyd G, Blaise M, Radutoiu S, Stougaard J (2017) Receptor-mediated chitin perception in legume roots is functionally separable from Nod factor perception. Proc Natl Acad Sci 114: E8118-E8127). The tested transgenes were the mutated LysM receptors described in Example 2.

The test system of assay [2] is Medicago nfp mutants. The assay is described as follows: Complementation (nodulation) of Medicago nfp mutants, inoculation with S. medicae. The class given is in vivo, Medicago truncatula.
Description: as §1
These complementation experiments were repeated using S. medicae inoculation, which has been reported to nodulate Medicago with higher efficiency. The results shown in FIG. 4B are complementation tests where the plants were inoculated with S. medicae.

Assay [3] concerns L. japonicus nfr1-1 mutant roots. Briefly: Nodulation complementation of L. japonicus nfr1-1 mutants with LjNFR1/MtLYK3 chimeras, M. loti R7A. It is filed as in vivo, Lotus japonicus. The note with it: 35 days post inoculation with M. loti R7A. An excerpt:
Complementation assay: Construct assembly, plant growth conditions, hairy root transformations, nodulation and ROS assays were generally conducted as described in Bozsoki et al. (2017) (Bozsoki Z, Cheng J, Feng F, Gysel K, Vinther M, Andersen K R, Oldroyd G, Blaise M, Radutoiu S, Stougaard J (2017) Receptor-mediated chitin perception in legume roots is functionally separable from Nod factor perception. Proc Natl Acad Sci 114: E8118-E8127). A general schematic of the construct is provided in FIG. 3, whereby the pNFR1 promoter was used to drive the chimeric constructs. The tested chimeric receptors in Lotus are depicted as block diagrams below the graph in FIG. 7, where NFR1 domains are shown in white and LYK3 domains are shown in grey, and transverse lines across the block depicting the LysM1 domain indicate sections II and IV. […] Nodules were counted on hairy root transformed L. japonicus nfr1-1 mutant roots 35 days post inoculation with M. loti R7Å. M. loti R7A is the cognate N-fixing bacterial strain for L. japonicus, and is not recognized by M. truncatula.

The source of these data is patent publication US12190997B2, “Genetically altered LysM receptors with altered agonist specificity and affinity” (Aarhus Universitet, priority 2018, dated 2025).

Substitutions are numbered along the chain they refer to. Numbers in names are those of the source.

T1 sequence (Q0GXS4 28-246 L147D/L154D): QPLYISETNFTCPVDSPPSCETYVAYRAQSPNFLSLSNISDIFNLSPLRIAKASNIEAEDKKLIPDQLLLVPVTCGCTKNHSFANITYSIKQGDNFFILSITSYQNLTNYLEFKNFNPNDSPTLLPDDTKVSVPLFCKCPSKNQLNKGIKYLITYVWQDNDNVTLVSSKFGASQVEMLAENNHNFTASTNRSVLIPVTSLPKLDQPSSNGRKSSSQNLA

In general, Kd refers to the equilibrium constant for the complex coming apart. With `CCCCCC/C=C\CCCCC/C=C/C(=O)N[C@H]1[C@H](O[C@H]2[C@H](O)[C@@H](NC(C)=O)[C@H](O[C@H]3[C@H](O)[C@@H](NC(C)=O)[C@H](O[C@H]4[C@H](O)[C@@H](NC(C)=O)C(O)O[C@@H]4COS(=O)(=O)O)O[C@@H]3CO)O[C@@H]2CO)O[C@H](COC(C)=O)[C@@H](O)[C@@H]1O` (some centres unmarked) [S. meliloti LCO-IV], on NFP L147D/L154D mutant (FIGS. 19A-19C), the “association rate (kon) faster compared to WT NFP-ECD” value stood at 4.5 fold and the “dissociation rate (koff) increased compared to WT NFP-ECD” value amounted to 59 fold. Besides, on NFP L147D/L154D mutant (S. meliloti LCO-IV, FIG. 2B), the Kd is 48 ± 1 µM, the “affinity compared with NFP WT” value is recorded as “approximately two times lower affinity”, the “association (Kon) compared with NFP WT” value is “almost unaffected” and the “dissociation (Koff) faster than NFP WT” value is “approximately 15 times”. Moreover, the Kd on NFP L147D/L154D mutant (purified L147D/L154D NFP-ECD, FIGS. 19A-19C) came to 167 ± 4.2 µM.

B1: wild type Nfp gene: wild type Medicago NFP LysM receptor transgene used for hairy root complementation (protein, UniProt Q0GXS4 28-595, looked up)
Serine/threonine …: QPLYISETNFTCPVDSPPSCETYVAYRAQSPNFLSLSNISDIFNLSPLRIAKASNIEAEDKKLIPDQLLLVPVTCGCTKNHSFANITYSIKQGDNFFILSITSYQNLTNYLEFKNFNPNLSPTLLPLDTKVSVPLFCKCPSKNQLNKGIKYLITYVWQDNDNVTLVSSKFGASQVEMLAENNHNFTASTNRSVLIPVTSLPKLDQPSSNGRKSSSQNLALIIGISLGSAFFILVLTLSLVYVYCLKMKRLNRSTSSSETADKLLSGVSGYVSKPTMYEIDAIMEGTTNLSDNCKIGESVYKANIDGRVLAVKKIKKDASEELKILQKVNHGNLVKLMGVSSDNDGNCFLVYEYAENGSLEEWLFSESSKTSNSVVSLTWSQRITIAMDVAIGLQYMHEHTYPRIIHRDITTSNILLGSNFKAKIANFGMARTSTNSMMPKIDVFAFGVVLIELLTGKKAMTTKENGEVVILWKDFWKIFDLEGNREERLRKWMDPKLESFYPIDNALSLASLAVNCTADKSLSRPTIAEIVLCLSLLNQPSSEPMLERSLTSGLDAEATHVVTSVIAR
In the assay on Medicago nfp mutants [1], B1 gave a nodules per plant of 10 nodules per plant.

B2: double mutant construct (L147D/L154D): Medicago NFP with leucine residues L147 and L154 replaced with aspartate (hydrophobic patch mutant) (protein, UniProt Q0GXS4 28-595, looked up, variant L147D L154D)
Serine/threonine …: B1 Serine/threonine … with L120D, L127D
In the case of B2, in the assay with Medicago nfp mutants [1], the nodules per plant result is listed as “did not develop any nodules”. The complementation entry with Medicago nfp mutants [2] is on record as “complements poorly”.

B3: LjCERK6: unaltered Lotus CERK6 chitin receptor protein (SEQ ID NO:34), negative control (protein)
chain: MEHPRLGFPITLLLFSFILLPSTSQSKCTHGCALAQASYYLLNGSNLTYISEIMQSSLLTKPEDIVSYNQDTIASKDSVQAGQRINVPFPCDCIEGEFLGHTFQYDVQKGDRYDTIAGTNYANLTTVEWLRRFNSYPPDNIPDTGTLNVTVNCSCGDSGVGDYGLFVTYPLRPGETLGSVASNVKLDSALLQKYNPNVNFNQGSGIVYIPAKDQNGSYVLLGSSSGGLAGGAIAGIAAGVAVCLLLLAGFIYVGYFRKKRIQKEELLSQETRAIFPQDGKDENPRSTVNETPGPGGPAAMAGITVDKSVEFSYDELATATDNFSLANKIGQGGFGSVYYAELRGERAAIKKMDMQASKEFLAELKVLTRVHHLNLVRLIGYSIEGSLFLVYEFIENGNLSQHLRGSGRDPLPWATRVQIALDSARGLEYIHEHTVPVYIHRDIKSANILIDKNYRGKVADFGLTKLTEVGSSSLPTGRLVGTFGYMPPEYAQYGDVSPKVDVYAFGVVLYELISAKDAIVKTSESITDSKGLVALFEGVLSQPDPTEDLRKLVDQRLGDNYPVDSVRKMAQLAKACTQDNPQLRPSMRSIVVALMTLSSTTDDWDVGSFYENQNLVNLMSGR
In the case of B3, in assay [3], the “complementation (nodulation)” value is listed as “zero nodulation”.
